Target: T1, STAT6 (Homo sapiens, UniProt P42226)
T1 sequence (P42226 1-847): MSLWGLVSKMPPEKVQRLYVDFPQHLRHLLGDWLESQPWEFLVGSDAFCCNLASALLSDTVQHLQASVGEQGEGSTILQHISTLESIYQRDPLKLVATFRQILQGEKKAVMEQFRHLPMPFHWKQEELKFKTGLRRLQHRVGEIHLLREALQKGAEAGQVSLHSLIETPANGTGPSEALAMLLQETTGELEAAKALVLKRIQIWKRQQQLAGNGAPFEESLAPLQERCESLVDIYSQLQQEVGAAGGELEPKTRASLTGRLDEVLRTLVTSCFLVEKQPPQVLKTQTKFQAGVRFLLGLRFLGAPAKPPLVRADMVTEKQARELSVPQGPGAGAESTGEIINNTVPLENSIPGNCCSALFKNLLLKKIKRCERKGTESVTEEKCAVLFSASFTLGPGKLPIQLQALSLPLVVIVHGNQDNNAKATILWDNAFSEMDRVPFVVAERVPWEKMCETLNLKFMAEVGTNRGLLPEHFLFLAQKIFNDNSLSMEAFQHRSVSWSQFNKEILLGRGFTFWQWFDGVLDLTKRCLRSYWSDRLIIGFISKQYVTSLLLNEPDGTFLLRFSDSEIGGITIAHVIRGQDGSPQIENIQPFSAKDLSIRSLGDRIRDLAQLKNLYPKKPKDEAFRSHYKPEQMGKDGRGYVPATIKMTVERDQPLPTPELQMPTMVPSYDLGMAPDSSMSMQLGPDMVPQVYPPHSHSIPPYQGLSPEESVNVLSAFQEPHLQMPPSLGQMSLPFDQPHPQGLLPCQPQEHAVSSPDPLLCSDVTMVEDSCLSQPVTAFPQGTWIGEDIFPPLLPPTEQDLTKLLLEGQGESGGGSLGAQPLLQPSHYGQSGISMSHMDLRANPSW
Experiment: Fluorescence polarization (FP) binding assay, STAT6
Experimental: Ki values were calculated from IC50 values using the published equation.[2] […]
Table S2: Activities of 12 against STAT5 proteins in FP assays.
Fluorescence polarization assays
Fluorescence polarization assays were essentially carried out as previously described.[1] These assays quantitate to which extent a test compound is able to interfere with binding between a STAT protein and a fluorescein-labeled phosphotyrosine-containing peptide, which is known to bind to the SH2 domain of the respective STAT protein. The following protein […]
concentrations were used: 100 nM for STAT1, 150 nM for STAT3, 30 nM for STAT4, 180 nM for STAT5a, 90 nM for STAT5b and 105 nM for STAT6. All peptides were used at a concentration of 10 nM. The following peptides were used: 5 -carboxyfluorescein -GpYDKPHVL for STAT1; 5-carboxyfluorescein -GpYLPQTV-NH2 for STAT3; 5-carboxyfluorescein-GpYLPQNID-OH for STAT4; 5-carboxyfluorescein-GpYLVLDKW for STAT5a/b, and 5-carboxyfluorescein-GpYVPWQDLI-OH for STAT6. As a buffer system, 10 mM Tris (pH 8.0), 50 mM NaCl, 1 mM EDTA, 1 mM DTT, 0.1 % Nonidet P-40 substitute, and 2 % DMSO in water was used. All compounds tested were incubated for 1 h with the protein. Subsequently, the fluorescein-labeled peptide was added and the fluorescence polarization was measured with an Infinite F500 plate reader (Tecan) after another hour. IC50 values were converted to Ki-values using the published equation.[2] […]
3:2 solution was added . The solution was degassed by applying ultrasonic under vacuum for one minute four times. 14 mg of Pd(PPh3)4 (12 µmol, 5 mol %) were added and the solution was refluxed overnight. After cooling down, the mixture was extracted with ethyl acetate, washed with brine and dried over Na2SO4. The crude product was purified by flash column […]
Method 2: Synthesis of dibenzylphosphate esters
The corresponding phenol (1 eq.) was dissolved in 10 ml/mmol MeCN or DMF and CCl4 (5 eq.), DIPEA (2 eq.) and DMAP (0.1 eq.) were added. After cooling down to 0°C, dibenzyl phosphite (1.5 eq.) was added dropwise and stirring was continued at the same temperature. […]

SMILES | IC50 (FP assay) [µM] | Ki (FP assay, Ki calculated from IC50 (n=3)) [µM] | inhibition at 200 µM (read-out: STAT6 inhibition at 200 μM) [%]
COc1cc(-c2cc(-c3cc(F)c(F)c(F)c3)cc(C(F)P(=O)(O)O)c2)cc(OC)c1OC (stereo not drawn) [compound 12] | 144 ± 2.8 | 71.5 ± 1.4 | –
COc1cc(-c2cc(OP(=O)(O)O)cc(-c3cc(F)c(F)c(F)c3)c2)cc(OC)c1OC [6 b] | – | – | 39 ± 1

Reference: paper PMC9303812, “Asymmetrically Substituted m‐Terphenyl Phosphates Inhibit the Transcription Factor STAT5a” (Chembiochem, 2021)
